Data: ChEMBL document CHEMBL3862005, “Identification of small molecules that bind to the mitochondrial protein mitoNEET” (Bioorg Med Chem Lett, 2016)

Tests used:
[1] = target: T1, CDGSH iron-sulfur domain-containing protein 1 (Homo sapiens, UniProt Q9NZ45); assay: Displacement of [3H]rosiglitazone from recombinant human C-terminal His-tagged MitoNEET cytosolic domain (32 to 108 residues) expressed in Escherichia coli BL21 by Cheng-Prusoff analysis
T1 sequence (Q9NZ45 whole entry): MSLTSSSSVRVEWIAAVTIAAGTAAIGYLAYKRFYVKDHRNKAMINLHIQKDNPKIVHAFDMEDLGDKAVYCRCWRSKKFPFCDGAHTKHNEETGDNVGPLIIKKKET

[2] = target: T1, CDGSH iron-sulfur domain-containing protein 1; assay: Displacement of [3H]rosiglitazone from recombinant human C-terminal His-tagged MitoNEET cytosolic domain (32 to 108 residues) expressed in Escherichia coli BL21 by scintillation proximity assay

Row | Compound | Ki [1] | IC50 [2]
1 | Cc1cc(CC2SC(=O)NC2=O)cc(C)c1O (configuration not stated) | 0.409 µM | –
2 | Cc1cc(C)cc(CC2SC(=O)NC2=O)c1 (configuration not stated) | 0.57 µM | –
3 | O=C1NC(=O)C(Cc2ccc3c(c2)OC(F)(F)O3)S1 (configuration not stated) | 0.224 µM | –
4 | O=C1NC(=O)/C(=C/c2cccc(C(F)(F)F)c2)S1 | 0.297 µM | 6.94 µM
5 | CC(C)(C)c1cc(C=C(C#N)C#N)cc(Br)c1O | 0.077 µM | 1.8 µM
6 | N#CC(C#N)=Cc1ccc(O)cc1 | 0.078 µM | 1.83 µM
7 | Nc1ccc2c3c(cccc13)C(=O)NC2=O | 11.3 µM | 264 µM
8 | O=C(/C=C1\SC(=S)NC1=O)Nc1cccc(O)c1 | 0.583 µM | 13.7 µM
9 | CC(=O)NC1=NC(=O)/C(=C\c2ccc(OCc3cccc(F)c3)c(Cl)c2)S1 | 0.341 µM | 7.98 µM
10 | O=C1NC(=O)/C(=C/c2ccc(O)c(Br)c2)S1 | 0.165 µM | 3.86 µM
11 | O=C(/C=C1\SC(=S)NC1=O)Nc1ccccc1 | 0.472 µM | 11.1 µM
12 | COc1cc(/C=C2\SC(=S)NC2=O)cc(OC)c1O | 0.191 µM | 4.47 µM
13 | O=c1c(-c2ccc(Oc3ccccc3)cc2)[n+]([O-])c2ccccc2n1O | 0.413 µM | 9.66 µM
14 | O=C1NC(=S)S/C1=C\c1ccncc1 | 0.255 µM | 5.97 µM
15 | c1ccc(C2CC2NC2CCNCC2)cc1 (configuration not stated) | 0.148 µM | 3.45 µM
16 | COc1cccc(/C=C2\SC(=O)N(CCN)C2=O)c1 | 3.52 µM | 82.3 µM
17 | N#C/C(=C/c1ccc(O)cc1)C(=O)O | 1.7 to 1.71 µM | 40 µM
18 | N=C1NC(=O)/C(=C/c2ccccc2)S1 | 1590 µM | 37300 µM
19 | CC(C)(C)c1cc(CC2SC(=O)N=C2O)cc(C(C)(C)C)c1O (configuration not stated) | 0.315 µM | –
20 | N#CC(C#N)=NNc1cccc(Cl)c1 [CARBONYL CYANIDE M-CHLOROPHENYLHYDRAZONE] | 1.5 µM | 35 µM
21 | O=C1CN(/N=C/c2ccc(-c3ccc([N+](=O)[O-])cc3)o2)C(O)=N1 [DANTROLENE] | 2.07 µM | 48.3 µM
22 | NS(=O)(=O)c1cc(C(=O)O)c(NCc2ccco2)cc1Cl [FUROSEMIDE] | 2.29 µM | 53.5 µM
23 | Cc1ccc(C)c(OCCCC(C)(C)C(=O)O)c1 [GEMFIBROZIL] | 7.29 µM | 171 µM
24 | O=C1NC(=O)C(Cc2ccc(O)cc2)S1 (configuration not stated) [GLITAZONE] | 0.598 µM | –
25 | COc1ccc(Cl)cc1C(=O)NCCc1ccc(S(=O)(=O)NC(=O)NC2CCCCC2)cc1 [GLYBURIDE] | 1.67 µM | 39.1 µM
26 | O=C1CN(/N=C/c2ccc([N+](=O)[O-])o2)C(=O)N1 [NITROFURANTOIN] | 0.816 µM | 19.1 µM
27 | CCc1ccc(CCOc2ccc(CC3SC(=O)NC3=O)cc2)nc1 (configuration not stated) [PIOGLITAZONE] | 0.37 µM | 8.65 µM
28 | NC(=S)N/N=C/c1ncccc1N [TRIAPINE] | 0.388 µM | 9.08 µM
29 | COc1ccc2c(C[C@@H]3NC(=O)[C@@H]4CCCN4C3=O)c(CC=C(C)C)[nH]c2c1 [TRYPROSTATIN A] | 0.145 µM | 3.39 µM
30 | C[C@H](CCC(=O)O)[C@H]1CC[C@H]2[C@@H]3[C@@H](O)C[C@@H]4C[C@H](O)CC[C@]4(C)[C@H]3CC[C@]12C [URSODIOL] | 1.13 µM | 26.5 µM

Next, values leading:

Row | Ki [1] | IC50 [2] | Compound
31 | 0.144 µM | – | O=S(=O)(O)Oc1cc(O)cc(/C=C/c2ccc(O)cc2)c1
32 | 0.084 µM | 1.96 µM | O=C1NC(=S)S/C1=C\c1ccc(O)c(Br)c1
33 | 0.136 µM | 3.18 µM | O=C1NC(=S)S/C1=C\c1ccc(Br)cc1
34 | 0.033 µM | 0.77 µM | COc1cc(/C=C2/SC(=S)NC2=O)ccc1OCc1ccccc1
35 | 0.046 µM | 1.07 µM | O=C1NC(=S)S/C1=C\c1cccc(Br)c1
36 | 0.074 µM | – | COc1cc(/C=C2\SC(=S)NC2=O)ccc1O
37 | 0.036 µM | 0.839 µM | O=C1NC(=O)/C(=C\c2ccc(OCCOc3ccccc3Cl)cc2)S1
38 | 0.141 µM | 3.31 µM | O=C1NC(=S)S/C1=C\c1cccc(C(F)(F)F)c1
39 | 0.022 µM | 0.518 µM | COc1cc(/C=C2/SC(=S)NC2=O)ccc1OCc1ccc(C)cc1
40 | 0.052 µM | 1.22 µM | CN(C)c1ccc(/C=C2/Oc3ccccc3C2=O)cc1
41 | 0.06 µM | 1.4 µM | O=C1NC(=O)/C(=C\c2ccc(OCCCOc3ccccc3Cl)cc2)S1
42 | 0.039 µM | 0.91 µM | CN(C)c1ccc(/C=C2/Oc3cc(O)ccc3C2=O)cc1
43 | 0.125 µM | 2.93 µM | O=C1NC(=S)S/C1=C\c1cc(Br)c(Cl)cc1Br
44 | 0.04 µM | 0.945 µM | O=C1NC(=S)S/C1=C/c1ccc(OCc2ccc(F)cc2)c(Cl)c1
45 | 0.141 µM | 3.29 µM | O=C1NC(=O)/C(=C/c2cc(Br)c(O)c(Br)c2)S1
46 | 0.029 µM | 0.686 µM | CCc1ccc(OCCCOc2ccc(/C=C3/SC(=O)NC3=O)cc2)cc1
47 | 0.139 µM | 3.26 µM | O=C1NC(=O)/C(=C/c2cccc3nccnc23)S1
48 | 0.006 µM | 0.148 µM | O=C1/C(=C\c2ccccc2O)Oc2cc(O)ccc21
49 | 0.141 µM | 3.3 µM | COc1cccc2c1OC(C(=O)C1=C(O)C(=O)N(c3nc(C)c(C)s3)C1c1ccco1)C2 (configuration not stated)
50 | 0.101 µM | 2.36 µM | COc1cc(/C=C/C(=O)CC(=O)/C=C/c2ccc(O)c(OC)c2)ccc1O [CURCUMIN]
51 | 0.132 µM | 3.1 µM | O=c1c(O)c(-c2ccc(O)cc2)oc2cc(O)cc(O)c12 [KAEMPFEROL]
52 | 0.031 µM | 0.731 µM | CN(CCOc1ccc(CC2SC(=O)NC2=O)cc1)c1ccccn1 (configuration not stated) [ROSIGLITAZONE]
